Experimental data taken from patent US20240150368A1, “ULK INHIBITORS AND METHODS OF USE THEREOF” (Deciphera Pharmaceuticals, LLC, priority 2022, published 2024).

Assays:
[1] = test system: ULK kinase substrate ATG13 (pS318-ATG13) in MiaPaCa-2 cells; test: pATG13 levels of mutant KRas MiaPaCa-2 cells after treatment with ULK inhibitors in combination with trametinib (ELISA); format: cell-based, human
Method: pATG13 Levels of Mutant KRas MiaPaCa-2 Cells after Treatment with ULK Inhibitors in Combination with Trametinib
(§1) MiaPaCa-2 human pancreatic cancer cells (10000 cells/well) were added to a 384-well tissue-culture treated plate in 50 μL of pre-warmed DMEM medium supplemented with 10% characterized fetal bovine serum (Invitrogen, Carlsbad, CA), 100 units/mL penicillin G, 100 μg/mL streptomycin, and 2.5% Horse Serum and allowed to grow overnight at 37° C., 5% CO2, and 95% humidity. The following day, 10 μL of media containing trametinib or DMSO as a control was added to wells. The final concentration of trametinib in wells was 250 nM. A dose response of a test compound (0.6 μL per well) was added. DMSO (0.6 μL) was added to control wells. The plate was briefly shaken to mix wells and then incubated at 37° C. overnight. The next day, the media was aspirated and cells were washed with Dulbecco's Phosphate Buffered Saline (Gibco). Cells were lysed using MPER lysis buffer (Pierce, Rockford, IL) containing Halt Phosphatase and Protease Inhibitors (Pierce, Rockford, IL) and Phosphatase inhibitor cocktail 2 (Sigma, St. Louis, MO) at 4° C. for 10 minutes with shaking.
(§2) Cellular levels of phospho-Serine 318 ATG13 (pATG13) were measured via an ELISA method. Total ATG13 Antibody (Cell Signaling Cat #13273) was used to coat the wells. The plate was incubated at 4° C. overnight and washed with ELISA wash buffer (Biolegend Cat #421601). The wells were then blocked with assay diluent (Biolegend Cat #421203) for 1 h at rt. Plate wells were washed with ELISA wash buffer. Cell lysate was added to wells and incubated at rt for 2 h. Plate wells were washed with ELISA wash buffer. Biotinylated pS318-ATG13 antibody (Rockland Immunochemicals Cat #600-401-C49) was diluted in assay diluent and added to each well and incubated at rt for 1 h. Plate wells were washed with ELISA wash buffer. Streptavidin linked to horseradish peroxidase (Thermo Fisher Cat #21140) was diluted in assay diluent and added to each well and incubated at rt for 1 h. Plate wells were washed with ELISA wash buffer. High sensitivity TMB substrate (Biolegend Cat #421101) was added to each well and incubated at rt for 20 min. The reaction was stopped with 2.0N sulfuric acid. The plate was analyzed at on a plate reader measuring absorbance at 450 nm and 540 nm (background). Signal was calculated by first subtracting the background absorbance at 540 nm from the absorbance at 450 nm for each well. Next, the background corrected absorbance at 450 nm from blank wells was subtracted from test wells. Data was compared to control wells to determine % ATG13 phosphorylation. GraphPad Prism was used to calculate IC50 values.

[2] = target: T1, ULK1 kinase (Homo sapiens, UniProt O75385, E37A/K38A); test: Biochemical assay for ULK1 (coupled pyruvate kinase/lactate dehydrogenase assay); conditions: 1 mM ATP, 0.1 nM ULK1; read-out: ULK1 (inhibition of biochemical activity), IC50
T1 construct: (residues 1-283; ID NO: 1); purchased Beryllium
T1 sequence (O75385 1-283 E37A/K38A): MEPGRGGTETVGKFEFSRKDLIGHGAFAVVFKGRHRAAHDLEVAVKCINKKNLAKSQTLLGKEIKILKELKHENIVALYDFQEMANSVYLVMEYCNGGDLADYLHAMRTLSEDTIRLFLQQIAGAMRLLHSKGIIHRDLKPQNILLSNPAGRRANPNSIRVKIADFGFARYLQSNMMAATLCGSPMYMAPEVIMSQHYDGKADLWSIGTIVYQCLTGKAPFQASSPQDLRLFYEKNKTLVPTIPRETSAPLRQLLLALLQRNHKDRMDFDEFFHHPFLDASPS
Method: Biochemical Assay for ULK1 (SEQ. ID NO: 1)
Activity of ULK1 kinase was determined spectroscopically using a coupled pyruvate kinase/lactate dehydrogenase assay that continuously monitors the ATP hydrolysis-dependent oxidation of NADH (e.g., Schindler et al. Science (2000) 289: 1938-1942). Assays were conducted in 384-well plates (100 μL final volume) using 0.1 nM ULK1 (from Beryllium), 0.075 mM peptide substrate (YANWLAASIYLDGKKK), 1.5 units pyruvate kinase, 2.1 units lactate dehydrogenase, 1 mM phosphoenol pyruvate, 0.28 mM NADH and 1 mM ATP in assay buffer (100 mM Tris, pH 7.5, 15 mM MgCl2, 0.5 mM DTT, 0.004% (w/v) BSA, and 0.004% Triton X-100). Inhibition of ULK1 was measured by adding serial diluted test compound (final assay concentration of 1% DMSO). A decrease in absorption at 340 nm was monitored continuously for 6 h at 30° C. on a multi-mode microplate reader (BioTek). The reaction rate was calculated using the 2-3 h time frame. The reaction rate at each concentration of compound was converted to percent inhibition using controls (i.e., reaction with no test compound and reaction with a known inhibitor) and IC50 values were calculated using software routines in Prism (GraphPad software).

[3] = test system: ULK kinase substrate ATG13 (pS318-ATG13) in A549 (KRAS mutant) cells; test: pATG13 levels of mutant KRas A549 cells after treatment with ULK inhibitors in combination with trametinib (ELISA); format: cell-based, human
Method: Cellular Inhibition of ULK Kinase Substrate ATG13 Protein pATG13 Levels of Mutant KRas A549 Cells after Treatment with ULK Inhibitors in Combination with Trametinib
as §1, with “A549 (KRAS mutant)” for “MiaPaCa-2”, “lung” for “pancreatic”, “(6,000” for “(10000”, “G, and” for “G,”, “streptomycin” for “streptomycin, and 2.5% Horse Serum”, “min” for “minutes”
as §2, with “2N Sulfuric Acid.” for “2.0N sulfuric acid.”

[4] = target: T2, ULK2 kinase (Homo sapiens, UniProt Q8IYT8); test: Biochemical assay for ULK2 (coupled pyruvate kinase/lactate dehydrogenase assay); conditions: 1 mM ATP, 1 nM ULK2; read-out: ULK2 (inhibition of biochemical activity), IC50
T2 construct: (residues 1-306 with N-terminal GST and His tag; ID NO: 2); purchased Signal Chem U02-11G
T2 sequence (Q8IYT8 with tags, fused parts or gaps): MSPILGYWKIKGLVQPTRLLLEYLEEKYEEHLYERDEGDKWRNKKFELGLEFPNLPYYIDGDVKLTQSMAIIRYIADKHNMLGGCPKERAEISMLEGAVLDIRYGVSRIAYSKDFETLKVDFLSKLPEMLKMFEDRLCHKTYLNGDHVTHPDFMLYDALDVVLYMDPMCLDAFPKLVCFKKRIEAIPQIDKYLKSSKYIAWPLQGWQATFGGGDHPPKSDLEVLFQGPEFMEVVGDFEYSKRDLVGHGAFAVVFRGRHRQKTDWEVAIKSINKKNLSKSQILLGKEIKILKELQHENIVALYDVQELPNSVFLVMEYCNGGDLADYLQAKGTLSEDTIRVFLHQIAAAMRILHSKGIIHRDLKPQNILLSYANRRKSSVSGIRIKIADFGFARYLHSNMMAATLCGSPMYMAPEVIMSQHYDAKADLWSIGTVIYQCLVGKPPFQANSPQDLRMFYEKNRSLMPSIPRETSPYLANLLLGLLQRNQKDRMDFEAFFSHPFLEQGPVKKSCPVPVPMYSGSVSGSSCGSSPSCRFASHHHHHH
Method: Biochemical Assay for ULK2 (SEQ. ID NO: 2)
Activity of ULK2 kinase was determined spectroscopically using a coupled pyruvate kinase/lactate dehydrogenase assay that continuously monitors the ATP hydrolysis-dependent oxidation of NADH (e.g., Schindler et al. Science (2000) 289: 1938-1942). Assays were conducted in 384-well plates (100 μL final volume) using 1 nM ULK2 (Signal Chem U02-11G), 200 μM ULKtide, 1.5 units pyruvate kinase, 2.1 units lactate dehydrogenase, 1 mM phosphoenol pyruvate, 0.28 mM NADH and 1 mM ATP in assay buffer (100 mM Tris, pH 7.5, 15 mM MgCl2, 0.5 mM DTT, 0.1% octyl-glucoside, 0.002% (w/v) BSA, and 0.002% Triton X-100). Inhibition of ULK2 was measured by adding serial diluted test compound (final assay concentration of 1% DMSO). A decrease in absorption at 340 nm was monitored continuously for 6 h at 30° C. on a multi-mode microplate reader (BioTek). The reaction rate was calculated using the 2-3 h time frame. The reaction rate at each concentration of compound was converted to percent inhibition using controls (i.e., reaction with no test compound and reaction with a known inhibitor) and IC50 values were calculated by fitting a four-parameter sigmoidal curve to the data using Prism (GraphPad software).

Compound | IC50 [1] [nM] | IC50 [2] [nM] | IC50 [3] [nM] | IC50 [4] [nM]
CC/C(Nc1cnn(C2CCN(C(C)C)CC2)c1)=C1/C(=O)Nc2ccc(C(=O)N(C)C)cc21 [Example 2, (Z)-3-(1-((1-(1-isopropylpiperidin-4-yl)-1H-pyrazol-4-yl)amino)propylidene)-N,N-dimethyl-2-oxoindoline-5-carboxamide] | 100 to 300 | 100 to 500 | > 600 | 
CC/C(Nc1cnn(C(C)C)c1)=C1/C(=O)Nc2ccc(C(=O)C3CC3)cc21 [Example 6, (Z)-5-(cyclopropanecarbonyl)-3-(1-((1-isopropyl-1H-pyrazol-4-yl)amino)propylidene)indolin-2-one] |  | 10 to 100 | 100 to 300 | 100 to 500
CC/C(Nc1ccc(N2CCN(C)CC2)cc1)=C1/C(=O)Nc2ccc(C(=O)NCCOC)cc21 [Example 11] | ≤ 100 | 10 to 100 | 300 to 600 | 
CCCNC(=O)c1ccc2c(c1)/C(=C(\CC)Nc1cnn(C3CCN(C(C)C)CC3)c1)C(=O)N2 [Example 15] | ≤ 100 | ≤ 10 | ≤ 100 | 
C/C(Nc1cnn(C2CCN(C(C)C)CC2)c1)=C1/C(=O)Nc2ccc(C(=O)NCC(F)(F)F)cc21 [Example 24] | ≤ 100 | ≤ 10 | 300 to 600 | 
CC/C(Nc1cnn(C2CCN(C3CCC3)CC2)c1)=C1/C(=O)Nc2ccc(C(=O)NCC(C)C)cc21 [Example 32] | ≤ 100 | ≤ 10 | ≤ 100 | 
CC/C(Nc1cnn(C2CCN(C3CCCC3)CC2)c1)=C1/C(=O)Nc2ccc(C(=O)NCC(C)C)cc21 [Example 33] | ≤ 100 | ≤ 10 | ≤ 100 | 
CC/C(Nc1cnn(C2CCN(C3CCCCC3)CC2)c1)=C1/C(=O)Nc2ccc(C(=O)NCC(C)C)cc21 [Example 34] | ≤ 100 | ≤ 10 | ≤ 100 | 
CC/C(Nc1cnn(C2CCN(C3COC3)CC2)c1)=C1/C(=O)Nc2ccc(C(=O)NCC(C)C)cc21 [Example 35] | ≤ 100 | ≤ 10 | 300 to 600 | 
CC/C(Nc1cnn(C2CCN(C3CCOC3)CC2)c1)=C1/C(=O)Nc2ccc(C(=O)NCC(C)C)cc21 (stereo not drawn) [Example 36] | ≤ 100 | ≤ 10 | 100 to 300 | 
CC/C(Nc1cnn(C2CCN(CC(C)C)CC2)c1)=C1/C(=O)Nc2ccc(C(=O)NCC(C)C)cc21 [Example 38] | ≤ 100 | ≤ 10 | ≤ 100 | 
CC/C(Nc1cnn(C2CCN(CC3CC3)CC2)c1)=C1/C(=O)Nc2ccc(C(=O)NCC(C)C)cc21 [Example 39] | ≤ 100 | ≤ 10 | ≤ 100 | 
CC/C(Nc1cnn(C2CCN(CC3CCC3)CC2)c1)=C1/C(=O)Nc2ccc(C(=O)NCC(C)C)cc21 [Example 40] | ≤ 100 | ≤ 10 | ≤ 100 | 
CC/C(Nc1cnn(C2CCN(CCOC)CC2)c1)=C1/C(=O)Nc2ccc(C(=O)NCC(C)C)cc21 [Example 41] | ≤ 100 | ≤ 10 | ≤ 100 | 
CC/C(Nc1ccc(N2CCN(C)CC2)c(F)c1)=C1/C(=O)Nc2ccc(C(=O)NCC(F)(F)F)cc21 [Example 72] | ≤ 100 | ≤ 10 |  | ≤ 10
CC/C(Nc1ccc(N2CCN(C)CC2)cc1F)=C1/C(=O)Nc2ccc(C(=O)NCC(F)(F)F)cc21 [Example 73] | 100 to 300 | 100 to 500 |  | 100 to 500
CC/C(Nc1cnc(N2CCN(C)CC2)nc1)=C1/C(=O)Nc2ccc(C(=O)NCC(F)(F)F)cc21 [Example 76] | 100 to 300 | 100 to 500 |  | > 500
CC/C(Nc1cnn(C2CCN(C(C)C)CC2)c1)=C1/C(=O)Nc2ccc(C(=O)NCC3(C)CCCO3)cc21 (stereo not drawn) [Example 174] |  | ≤ 10 | ≤ 100 | 10 to 100
